Data as given in PMC7343746, “(2S, 4R)-4-[^18F]Fluoroglutamine for In vivo PET Imaging of Glioma Xenografts in Mice: an Evaluation of Multiple Pharmacokinetic Models” (Molecular Imaging and Biology, 2020).

How the values were obtained:
rat BT4C glioma cells [1] = experiment: In vivo PET imaging of subcutaneous glioma xenografts; set-up: species or system Foxn1^nu/nu mouse; conditions: for Tumor-to-background muscle ratio: at uptake plateau around 12.5 min
Text: The subcutaneous tumor model was created by injecting rat BT4C glioma cells subcutaneously into the hind leg and neck region of six athymic nude (Foxn1^nu/nu, Envigo, Gannant, France) mice at 7 weeks old. Tumor growth was visually tracked and subjects PET imaged after 5 weeks. See Electronic Supplemental Materials (ESM) for detailed animal models.
One to two mice were imaged at a time while under 2 % isoflurane anesthesia with an Inveon multimodality small animal PET/CT scanner (Siemens Medical Solutions, Munich, Germany) commencing with an attenuation CT scan to correct the PET scan data. Ten to twelve megabequerels of the tracer was injected into the tail vein, and the subject(s) were imaged over a 60-min period in list mode dividing framing into 6 × 10 s, 4 × 60 s, 5 × 300 s, 3 × 600 s. Obtained sinograms were reconstructed using the ordered-subset expectation maximization 2-dimensional algorithm to obtain the final PET images and back-corrected for radionuclide decay.
(§1) Image analysis was performed using CARIMAS software published and freely distributed by the Turku PET Center (http://turkupetcentre.fi/carimas/). CT scans were used as rough anatomical reference while tumor regions of interest (ROI) were hand-drawn based upon observed spikes of radioactivity in the PET images at locations correlating with recorded tumor grafts. Control muscle ROIs were drawn on the side opposite to the tumor in the leg flank muscle (based on CT) while the blood ROI was drawn based upon heart anatomical location and observed PET image radioactivity spike during the initial 20 s of imaging in the left ventricle. Standardized uptake values (SUV) were calculated with respect to ROI volume, mean and max tumor radioactivity, total injected radioactivity dose (corrected for tail, cannula, and syringe residual radioactivity), and animal weight, and were additionally presented as tumor-to-background ratio (TBR, tumor-to-healthy brain region for intracranial gliomas and tumor-to-muscle for subcutaneous gliomas) as defined by recent glioma research literature standards. Mean and maximum TBR values were reported as ROI radioactivity per volume divided by mean background radioactivity per volume. The blood radioactivity SUV and gender-specific metabolite-corrected blood radioactivity SUV were then applied to multiple pharmacokinetic models to characterize the flux of the tracer (further described in the “Modeling” section).

[2] = test system: patient-derived BT3 glioma cells; experiment: Patlak plot (irreversible uptake model), orthotopic model; assay type: in vivo, BALB/cOlaHsd-Foxn1^nu mouse; conditions: for Patlak Ic (AB) y intercept: AB input; for Patlak Ic (PC) y intercept: PC input
Protocol: as §1
(§2) Using the heart’s left ventricle ROI from the PET data as an uncorrected radioactivity level input and the bioavailable parent-tracer fraction (results: Eqs. 3 and 4 applied to the uncorrected input) as the corrected input, multiple models were investigated to characterize the tissue uptake dynamics. Two-compartment modeling and Logan, Patlak, and Yokoi plots were used to separately model the pharmacokinetics for the gliomas (both subcutaneous and orthotopic loci) and their respective control tissues (healthy muscle and healthy brain, respectively). Where indicated, means plus/minus standard deviations are reported. Difference in parameters for uncorrected versus correct and target tissue versus their respective control regions were tested with students’ paired t tests with P values lower than 0.05 being considered significant.

[3] = test system: patient-derived BT3 glioma cells; experiment: Yokoi plot, orthotopic model; assay type: in vivo, BALB/cOlaHsd-Foxn1^nu mouse; conditions: for Yokoi K1 (AB) plasma to tissue transport rate / Yokoi K1/k2 (AB) binding potential / Yokoi k2 (AB) tissue to plasma transport rate: AB input; for Yokoi K1 (PC) plasma to tissue transport rate / Yokoi K1/k2 (PC) binding potential / Yokoi k2 (PC) tissue to plasma transport rate: PC input
Protocol: as §1, §2

[4] = test system: patient-derived BT3 glioma cells; experiment: Logan plot (reversible uptake model), orthotopic model; assay type: in vivo, BALB/cOlaHsd-Foxn1^nu mouse; conditions: for Logan DV (AB) distribution volume / Logan Ic (AB) y intercept: AB input; for Logan DV (PC) distribution volume / Logan IC (PC) y intercept: PC input
Protocol: as §1, §2

rat BT4C glioma cells [5] = experiment: Logan plot (reversible uptake model), subcutaneous model; assay type: in vivo, Foxn1^nu/nu mouse; conditions: for AB distribution volume: arterial blood input; for PC distribution volume: plasma-corrected input; for Logan DV (AB) distribution volume / Logan Ic (AB) y intercept: AB input; for Logan DV (PC) distribution volume / Logan IC (PC) y intercept: PC input
Protocol: as §1, §2

[6] = Bone (femoral condyle) average (n = 6)

- Tumor-to-background muscle ratio (rat BT4C glioma cells [1]; flank locus): 2.0 ± 0.8
- Tumor-to-background muscle ratio (rat BT4C glioma cells [1]; neck locus): 1.8 ± 0.6
- PET tumor-to-muscle (flank) ratio (rat BT4C glioma cells [1]; subcutaneous BT4C gliomas, n = 12): 1.9 ± 0.7
- Time at which tracer uptake plateaued (rat BT4C glioma cells [1]; subcutaneous BT4C tumors): around 12.5 min
- Patlak Ic (AB) y intercept ([2]; Subject A brain (control)): 0.1654
- Patlak Ic (PC) y intercept ([2]; Subject A brain (control)): 0.2100
- Patlak Ic (AB) y intercept ([2]; Subject A glioma max.): 1.07
- Patlak Ic (PC) y intercept ([2]; Subject A glioma max.): 1.4536
- Patlak Ic (AB) y intercept ([2]; Subject A o.t. glioma): 0.7386
- Patlak Ic (PC) y intercept ([2]; Subject A o.t. glioma): 0.9480
- Patlak Ic (AB) y intercept ([2]; Subject B brain (control)): 0.1316
- Patlak Ic (PC) y intercept ([2]; Subject B brain (control)): 0.1563
- Patlak Ic (AB) y intercept ([2]; Subject B glioma max.): 0.4556
- Patlak Ic (PC) y intercept ([2]; Subject B glioma max.): 0.5434
- Patlak Ic (AB) y intercept ([2]; Subject B o.t. glioma): 0.4687
- Patlak Ic (PC) y intercept ([2]; Subject B o.t. glioma): 0.5996
- Yokoi K1 (AB) plasma to tissue transport rate ([3]; Subject A brain (control)): 0.018 mL min-1 mL-1
- Yokoi K1/k2 (AB) binding potential ([3]; Subject A brain (control)): 0.34 mL mL-1
- Yokoi k2 (AB) tissue to plasma transport rate ([3]; Subject A brain (control)): 0.054 min⁻¹
- Yokoi K1 (PC) plasma to tissue transport rate ([3]; Subject A brain (control)): 0.019 mL min-1 mL-1
- Yokoi K1/k2 (PC) binding potential ([3]; Subject A brain (control)): 0.68 mL mL-1
- Yokoi k2 (PC) tissue to plasma transport rate ([3]; Subject A brain (control)): 0.028 min⁻¹
- Yokoi K1 (AB) plasma to tissue transport rate ([3]; Subject A glioma max.): 0.120 mL min-1 mL-1
- Yokoi K1/k2 (AB) binding potential ([3]; Subject A glioma max.): 1.59 mL mL-1
- Yokoi k2 (AB) tissue to plasma transport rate ([3]; Subject A glioma max.): 0.075 min⁻¹
- Yokoi K1 (PC) plasma to tissue transport rate ([3]; Subject A glioma max.): 0.121 mL min-1 mL-1
- Yokoi K1/k2 (PC) binding potential ([3]; Subject A glioma max.): 2.95 mL mL-1
- Yokoi k2 (PC) tissue to plasma transport rate ([3]; Subject A glioma max.): 0.041 min⁻¹
- Yokoi K1 (AB) plasma to tissue transport rate ([3]; Subject A o.t. glioma): 0.078 mL min-1 mL-1
- Yokoi K1/k2 (AB) binding potential ([3]; Subject A o.t. glioma): 1.50 mL mL-1
- Yokoi k2 (AB) tissue to plasma transport rate ([3]; Subject A o.t. glioma): 0.052 min⁻¹
- Yokoi K1 (PC) plasma to tissue transport rate ([3]; Subject A o.t. glioma): 0.083 mL min-1 mL-1
- Yokoi K1/k2 (PC) binding potential ([3]; Subject A o.t. glioma): 2.96 mL mL-1
- Yokoi k2 (PC) tissue to plasma transport rate ([3]; Subject A o.t. glioma): 0.028 min⁻¹
- Yokoi K1 (AB) plasma to tissue transport rate ([3]; Subject B brain (control)): 0.015 mL min-1 mL-1
- Yokoi K1/k2 (AB) binding potential ([3]; Subject B brain (control)): 0.33 mL mL-1
- Yokoi k2 (AB) tissue to plasma transport rate ([3]; Subject B brain (control)): 0.045 min⁻¹
- Yokoi K1 (PC) plasma to tissue transport rate ([3]; Subject B brain (control)): 0.015 mL min-1 mL-1
- Yokoi K1/k2 (PC) binding potential ([3]; Subject B brain (control)): 0.69 mL mL-1
- Yokoi k2 (PC) tissue to plasma transport rate ([3]; Subject B brain (control)): 0.022 min⁻¹
- Yokoi K1 (AB) plasma to tissue transport rate ([3]; Subject B glioma max.): 0.046 mL min-1 mL-1
- Yokoi K1/k2 (AB) binding potential ([3]; Subject B glioma max.): 1.29 mL mL-1
- Yokoi k2 (AB) tissue to plasma transport rate ([3]; Subject B glioma max.): 0.036 min⁻¹
- Yokoi K1 (PC) plasma to tissue transport rate ([3]; Subject B glioma max.): 0.049 mL min-1 mL-1
- Yokoi K1/k2 (PC) binding potential ([3]; Subject B glioma max.): 2.79 mL mL-1
- Yokoi k2 (PC) tissue to plasma transport rate ([3]; Subject B glioma max.): 0.017 min⁻¹
- Yokoi K1 (AB) plasma to tissue transport rate ([3]; Subject B o.t. glioma): 0.045 mL min-1 mL-1
- Yokoi K1/k2 (AB) binding potential ([3]; Subject B o.t. glioma): 0.99 mL mL-1
- Yokoi k2 (AB) tissue to plasma transport rate ([3]; Subject B o.t. glioma): 0.046 min⁻¹
- Yokoi K1 (PC) plasma to tissue transport rate ([3]; Subject B o.t. glioma): 0.047 mL min-1 mL-1
- Yokoi K1/k2 (PC) binding potential ([3]; Subject B o.t. glioma): 1.96 mL mL-1
- Yokoi k2 (PC) tissue to plasma transport rate ([3]; Subject B o.t. glioma): 0.024 min⁻¹
- Logan DV (AB) distribution volume ([4]; Subject A brain (control)): 1.61
- Logan Ic (AB) y intercept ([4]; Subject A brain (control)): -14.15
- Logan DV (PC) distribution volume ([4]; Subject A brain (control)): 2.97
- Logan IC (PC) y intercept ([4]; Subject A brain (control)): -25.16
- Logan DV (AB) distribution volume ([4]; Subject A glioma max.): 0.34
- Logan Ic (AB) y intercept ([4]; Subject A glioma max.): -18.72
- Logan DV (PC) distribution volume ([4]; Subject A glioma max.): 0.67
- Logan IC (PC) y intercept ([4]; Subject A glioma max.): -34.83
- Logan DV (AB) distribution volume ([4]; Subject A o.t. glioma): 1.51
- Logan Ic (AB) y intercept ([4]; Subject A o.t. glioma): -19.69
- Logan DV (PC) distribution volume ([4]; Subject A o.t. glioma): 2.97
- Logan IC (PC) y intercept ([4]; Subject A o.t. glioma): -36.03
- Logan Ic (AB) y intercept ([4]; Subject B brain (control)): -61.91
- Logan DV (PC) distribution volume ([4]; Subject B brain (control)): 2.57
- Logan IC (PC) y intercept ([4]; Subject B brain (control)): -50.78
- Logan DV (AB) distribution volume ([4]; Subject B glioma max.): 1.27
- Logan Ic (AB) y intercept ([4]; Subject B glioma max.): -26.85
- Logan DV (PC) distribution volume ([4]; Subject B glioma max.): 0.60
- Logan IC (PC) y intercept ([4]; Subject B glioma max.): -36.40
- Logan DV (AB) distribution volume ([4]; Subject B o.t. glioma): 0.32
- Logan Ic (AB) y intercept ([4]; Subject B o.t. glioma): -20.23
- Logan DV (PC) distribution volume ([4]; Subject B o.t. glioma): 1.95
- Logan IC (PC) y intercept ([4]; Subject B o.t. glioma): -41.27
- AB distribution volume (rat BT4C glioma cells [5]; Bone (femoral condyle) (n = 6)): 5.11 ± 2.19
- PC distribution volume (rat BT4C glioma cells [5]; Bone (femoral condyle) (n = 6)): 13.47 ± 7.70
- Logan DV (AB) distribution volume (rat BT4C glioma cells [5]; [6]): 5.11 ± 2.19
- Logan Ic (AB) y intercept (rat BT4C glioma cells [5]; [6]): -66.36 ± 26.46
- Logan DV (PC) distribution volume (rat BT4C glioma cells [5]; [6]): 13.47 ± 7.70
- Logan IC (PC) y intercept (rat BT4C glioma cells [5]; [6]): -142.79 ± 84.46
- AB distribution volume (rat BT4C glioma cells [5]; Flank muscle (n = 6)): 0.77 ± 0.13
- PC distribution volume (rat BT4C glioma cells [5]; Flank muscle (n = 6)): 1.38 ± 0.23
- Logan DV (AB) distribution volume (rat BT4C glioma cells [5]; Flank muscle average (n = 6)): 0.77 ± 0.13
- Logan Ic (AB) y intercept (rat BT4C glioma cells [5]; Flank muscle average (n = 6)): -15.28 ± 5.34
- Logan DV (PC) distribution volume (rat BT4C glioma cells [5]; Flank muscle average (n = 6)): 1.38 ± 0.23
- Logan IC (PC) y intercept (rat BT4C glioma cells [5]; Flank muscle average (n = 6)): -27.58 ± 7.76
- AB distribution volume (rat BT4C glioma cells [5]; Flank tumor (n = 6)): 1.13 ± 0.09
- PC distribution volume (rat BT4C glioma cells [5]; Flank tumor (n = 6)): 1.96 ± 0.15
- Logan DV (AB) distribution volume (rat BT4C glioma cells [5]; Flank tumor average (n = 6)): 1.13 ± 0.09
- Logan Ic (AB) y intercept (rat BT4C glioma cells [5]; Flank tumor average (n = 6)): -10.31 ± 3.60
- Logan DV (PC) distribution volume (rat BT4C glioma cells [5]; Flank tumor average (n = 6)): 1.96 ± 0.15
- Logan IC (PC) y intercept (rat BT4C glioma cells [5]; Flank tumor average (n = 6)): -19.79 ± 4.89
- AB distribution volume (rat BT4C glioma cells [5]; Neck tumor (n = 6)): 1.21 ± 0.08
- PC distribution volume (rat BT4C glioma cells [5]; Neck tumor (n = 6)): 2.08 ± 0.13
- Logan DV (AB) distribution volume (rat BT4C glioma cells [5]; Neck tumor average (n = 6)): 1.21 ± 0.08
- Logan Ic (AB) y intercept (rat BT4C glioma cells [5]; Neck tumor average (n = 6)): -7.63 ± 2.79
- Logan DV (PC) distribution volume (rat BT4C glioma cells [5]; Neck tumor average (n = 6)): 2.08 ± 0.13
- Logan IC (PC) y intercept (rat BT4C glioma cells [5]; Neck tumor average (n = 6)): -16.47 ± 3.85
Compound: NC(=O)[C@H]([18F])C[C@H](N)C(=O)O [[^18F]FGln, (2S, 4R)-4-[^18F]fluoroglutamine]
